{"source": "paper PMC6100385", "about": "“Irinotecan and Δ^9-Tetrahydrocannabinol Interactions in Rat Liver: A Preliminary Evaluation Using Biochemical and Genotoxicity Markers” (Molecules : A Journal of Synthetic Chemistry and Natural …, 2018)", "key": {"[1]": {"conditions": "cited from earlier work"}, "[2]": {"system": "liver of rats", "experiment": "Catalase (CAT) activity in the liver", "assay_type": "in vivo, rat", "conditions": "one day after application, single dose", "method": "Catalase activity was measured at 25 °C, pH 7.0, at 240 nm. Enzyme activity was calculated using the molar extinction coefficient ([…]), and expressed as IU/gprotein.\n(§1) Determination of protein concentration was carried out according to the method by Bradford using bovine serum albumin as standard."}, "[3]": {"system": "Sprague-Dawley rats", "conditions": "3 mg/kg b.w. i.p. for seven days; cited from earlier work"}, "[4]": {"conditions": "low doses (<5 µg/mL or <5 µmol/L, or <1 joint/day); cited from earlier work"}, "[5]": {"system": "male Wistar rats", "conditions": "THC 7 mg/kg b.w. p.o.; all three timepoints", "procedure": "(§2) Serum biochemical parameters included AST, ALT, bilirubin, ALP, and total protein. These were determined using a chemical analyser (Beckman Coulter AU 480; Brea, CA, USA). Activities of AST, ALT, and ALP were expressed as U/L. The amount of total protein was expressed as g/L. Bilirubin concentration (total bilirubin) was expressed as µmol/L."}, "[6]": {"system": "male Wistar rats", "experiment": "Serum bilirubin (total bilirubin)", "assay_type": "in vivo, rat", "conditions": "seven days of continuous intake", "procedure": "as §2"}, "[7]": {"system": "male Wistar rats", "experiment": "Serum alanine aminotransferase (ALT) activity", "assay_type": "in vivo, rat", "procedure": "as §2"}, "[8]": {"system": "male Wistar rats", "conditions": "THC p.o.; days 1 and 3", "procedure": "as §2"}, "[9]": {"system": "hepatocytes of male Wistar rats", "experiment": "Alkaline comet assay, primary DNA damage", "assay_type": "in vivo, rat", "method": "The obtained cellular suspension was immediately used for preparation of agarose microgels.\nTo prepare agarose microgels, we used fully frosted precleaned microscope slides (Surgipath®, Cambridgeshire, UK) precoated with 0.6% normal melting point (NMP) agarose. Suspensions of liver cells (V = 10 µL per slide) were mixed with 0.5% low melting point (LMP) agarose, placed on slides and covered with a top layer of 0.5% LMP agarose. The microgels were lysed overnight at 4 °C in a freshly prepared buffer (2.5 mol/L NaCl (Kemika, Zagreb, Croatia), 100 mmol/L Na2EDTA, 10 mmol/L Tris-HCl, 1% Na-laurylsarcosinate, pH = 10) with 1% Triton X-100 and 10% dimethyl sulfoxide (Kemika, Zagreb, Croatia). After lysis, microgels were denatured (20 min) in alkaline denaturation/electrophoresis buffer (300 mM NaOH (Kemika, Zagreb, Croatia) and 1 mM Na2EDTA, pH > 13). Electrophoresis lasted for 20 min, at 4 °C, 25 V, and 300 mA. The microgels were then neutralised using a Tris-HCl buffer (0.4 mol/L; pH = 7.5). Before microscopic analysis, the slides were stained with ethidium bromide (20 µg/mL). They were analysed using an epifluorescence microscope (Olympus BX50, Tokyo, Japan) equipped with appropriate filters, at 200× magnification. The level of DNA damage in individual cells was estimated using Comet Assay IV™ software (Instem-Perceptive Instruments Ltd., Suffolk, Halstead, UK). One well-trained scorer performed all of the comet measurements on the coded/blinded slides. Random fields were selected and the comets were captured at a constant depth of the gel, avoiding edges and occasional dead cells. A total of 200 comets per rat were measured on replicate slides in two independent evaluations (altogether 1000 individual comet measurements per each experimental group were performed). Tail length (presented in micrometres) and tail intensity (i.e., DNA% in tail) were chosen as indicators of DNA damage."}, "[10]": {"system": "male Wistar rats", "experiment": "Serum markers of liver function, overall", "assay_type": "in vivo, rat", "conditions": "1-, 3-, 7-day treatments", "procedure": "as §2"}, "[11]": {"system": "liver of rats", "experiment": "Lipid peroxidation (TBARS) in the liver", "assay_type": "in vivo, rat", "method": "The concentration of thiobarbituric reactive substances (TBARS), as a measure of lipid peroxidation, was determined using a modification of the method by Drury et al.. Butylated hydroxytoluene (BHT; 5 µL; 0.2% w/v) and phosphoric acid (750 µL; 1% v/v) were added to 50 µL samples. After mixing, 250 µL 0.6% (w/w) thiobarbituric acid (TBA) and 445 µL H2O were added and the reaction mixture was incubated in a water bath at 90 °C for 30 min. The mixture was cooled and absorbance was measured at 532 nm on a Shimadzu UV Probe Spectrophotometer (Kyoto, Japan). The concentration of TBARS was calculated using standard curves of increasing 1,1,3,3-tetramethoxypropane concentrations, and expressed as µmol/L."}, "[12]": {"system": "liver of rats", "experiment": "Superoxide dismutase (SOD) activity in the liver", "assay_type": "in vivo, rat", "conditions": "after 3 days", "method": "Total superoxide dismutase (SOD) activity was measured spectrophotometrically according to Flohé and Ötting. The reduction rate of cytochrome c by superoxide radicals was monitored at 550 nm utilizing the xanthine–xanthine oxidase system as the source for O2^•−. SOD competed for the superoxide and decreased the reduction rate of cytochrome c. One unit of SOD was defined as the amount of enzyme that inhibits the rate of cytochrome c reduction by 50%. Enzyme activity was expressed as IU/gprotein.\nas §1"}, "[13]": {"system": "male Wistar rats", "experiment": "Survival and clinical signs of intoxication", "assay_type": "in vivo, rat", "conditions": "IRI 100 mg/kg b.w. i.p. once; own observations same as literature", "method": "A total of 60 rats were randomly assigned to the following four groups. Group 1: control rats were given the same daily volume of the vehicle sesame oil as the THC-treated group. […] Group 3: rats orally administered THC dissolved in sesame oil at a daily dose of 7 mg/kg b.w. for one, three and seven days, respectively. […] Each group comprised 5 animals with minimal weight variation (300 g ± 10%).\nRats had free access to food and drinking water. Their body weights were regularly monitored and the doses of THC were adjusted accordingly. Survival and clinical signs of intoxication were also evaluated on a daily basis."}, "[14]": {"system": "liver cells of rats", "set-up": "method as in PMID 19663821", "conditions": "24 h and 72 h; eleven-fold lower IRI dose than tested here; cited from earlier work"}, "[15]": {"system": "humans", "set-up": "method as in PMID 11489791", "conditions": "cited from earlier work"}, "[16]": {"system": "rats", "conditions": "cited from earlier work"}, "[17]": {"system": "CDF1 mice", "set-up": "method as in PMID 9247609", "conditions": "i.p. at 100 mg/kg for six days; cited from earlier work"}}, "data": [{"smiles": "CCc1c2c(nc3ccc(OC(=O)N4CCC(N)CC4)cc13)-c1cc3c(c(=O)n1C2)COC(=O)[C@]3(O)CC", "note": "[NPC, 7-ethyl-10-[4-(1-piperidino)-1-amino]-carbonyloxycamptothecin]", "values": [{"measurement": "cytotoxic potential", "setting": "[1]", "value": "significantly lower cytotoxic potential"}]}, {"smiles": "CCCCCc1cc(O)c2c(c1)OC(C)(C)C1CCC(C)=CC21", "note": "(stereo not drawn) [THC, Δ^9-tetrahydrocannabinol]", "values": [{"measurement": "CAT activity in liver vs control and IRI-treated rats", "setting": "[2]", "value": "significantly increased"}, {"measurement": "lipid peroxidation in the liver", "setting": "[3]", "value": "slightly elevated"}, {"measurement": "liver CAT activity vs control rats", "setting": "[3]", "value": "decreased"}, {"measurement": "liver SOD activity vs control rats", "setting": "[3]", "value": "non-significant decrease"}, {"measurement": "genotoxic adverse outcomes", "setting": "[4]", "value": "usually not associated with genotoxic adverse outcomes"}, {"measurement": "AST activity in serum, trend", "setting": "[5]", "value": "trend towards increased AST activity"}, {"measurement": "serum bilirubin level vs single IRI and combined treatment", "setting": "[6]", "value": "higher"}, {"measurement": "ALT activity in serum vs IRI-treated rats", "setting": "[7]; 3-day exposure", "value": "statistically significant increase"}, {"measurement": "ALT level in serum", "setting": "[7]; THC p.o., day 3", "value": "somewhat increased"}, {"measurement": "ALP level in serum", "setting": "[8]", "value": "increased"}, {"measurement": "comet tail length, mean", "setting": "[9]; continuous 7-day oral exposure, compared to shorter treatments", "value": "significantly higher mean value of tail length"}, {"measurement": "risk for genotoxicity", "setting": "[9]; shorter exposures (1-, 3-day) to THC p.o.", "value": "not associated with a significant risk for genotoxicity"}, {"measurement": "liver function / serum liver markers, overall", "setting": "[10]", "value": "affected ALP and AP levels more than single IRI"}]}, {"smiles": "CCc1c2c(nc3ccc(OC(=O)N4CCC(N5CCCCC5)CC4)cc13)-c1cc3c(c(=O)n1C2)COC(=O)[C@]3(O)CC", "note": "[IRI, 7-ethyl-10-[4-(1-piperidino)-1-piperidino] carbonyloxycamptothecin]", "values": [{"measurement": "TBARS concentration in liver, IRI-treated vs control", "setting": "[11]; 3- and 7-day timepoints", "value": "not significant"}, {"measurement": "TBARS concentration in liver (lipid peroxidation), rank among groups", "setting": "[11]; one day following application", "value": "highest level of lipid peroxidation"}, {"measurement": "SOD activity in liver vs control", "setting": "[12]", "value": "significantly higher"}, {"measurement": "severe diarrhoea and gastrointestinal toxicity", "setting": "[13]", "value": "did not result with severe diarrhoea and gastrointestinal toxicity"}, {"measurement": "primary DNA damage in liver cells", "setting": "[14]", "value": "significant increase"}, {"measurement": "comet tail intensity, mean, vs control and THC groups", "setting": "[9]; 1-day treatment", "value": "significantly increased"}, {"measurement": "comet tail length, mean, vs control and THC groups", "setting": "[9]; 1-day treatment", "value": "significantly increased"}, {"measurement": "comet tail intensity, mean, vs control and THC groups", "setting": "[9]; 3-day treatment", "value": "significantly increased"}, {"measurement": "comet tail length, mean, vs control and THC groups", "setting": "[9]; 3-day treatment", "value": "significantly increased"}, {"measurement": "comet tail intensity, mean, rank among groups", "setting": "[9]; 7-day treatment", "value": "highest mean value"}, {"measurement": "DNA damage, rank among groups", "setting": "[9]; all timepoints", "value": "highest DNA damage"}, {"measurement": "primary DNA damage, 1-day vs 3 days", "setting": "[9]; single IRI", "value": "lower than after 3 days"}, {"measurement": "level of DNA damage with prolonged treatment duration", "setting": "[9]; single IRI, seven days", "value": "slightly diminished"}, {"measurement": "maximal and recommended tolerated human doses", "setting": "[15]", "value": "10–30 mg/m^2/day"}, {"measurement": "maximum tolerated dose for rats", "setting": "[16]; per week", "value": 100, "unit": "mg/kg b.w."}, {"measurement": "mortality and gastrointestinal mucositis", "setting": "[16]; single dose of 200 mg/kg", "value": "low mortality, but caused reproducible gastrointestinal mucositis"}, {"measurement": "lipid peroxidation in the liver", "setting": "[17]", "value": "increases of IRI-potentiated lipid peroxidation"}]}, {"smiles": "CCc1c2c(nc3ccc(O)cc13)-c1cc3c(c(=O)n1C2)COC(=O)[C@]3(O)CC", "note": "[SN-38]", "values": [{"measurement": "cytotoxicity relative to the parent compound (IRI)", "setting": "[1]", "value": "100–1000 fold"}]}, {"smiles": "CCc1c2c(nc3ccc(OC(=O)N4CCC(NCCCCC(=O)O)CC4)cc13)-c1cc3c(c(=O)n1C2)COC(=O)C3(O)CC", "note": "(stereo not drawn) [APC, 7-ethyl-10-[4-N-(5-aminopentanoic acid)-1-piperidino]carbonyloxycamptothecin]", "values": [{"measurement": "cytotoxic potential", "setting": "[1]", "value": "significantly lower cytotoxic potential"}]}]}
